# Measurements from patent US20260250318A1, “COMPOSITIONS AND METHODS FOR CROSSING THE BLOOD BRAIN BARRIER” (VOYAGER THERAPEUTICS, INC., priority 2022, published 2026).
# Columns and labels:
# Conditions in all cases: synthetic library passage 3, intravenous, relative to wild-type AAV9
# [1] = tested on: brain, spinal cord, and DRG of the NHPs; test: NGS fold enrichment of synthetic library (passage 3) in NHPs, first cross-species screen; format: in vivo, cynomolgus macaques (Macaca fascicularis)
# Outline: (§1)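 Synthetic capsid library (passage 3) was given intravenously […] to NHPs aged 2-4 years and to BALB/c and C57Bl/6 mice (n=3 each, 6-8 weeks). After about 28 days in vivo, tissue RNA was RT-PCR amplified and NGS-sequenced; values are fold enrichment per variant relative to wild-type AAV9.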
# brain [2] = test: NGS fold enrichment of synthetic library (passage 3) in BALB/c mice, first cross-species screen; format: in vivo
# Outline: as §1
# brain [3] = test: NGS fold enrichment of synthetic library (passage 3) in C57Bl/6 mice, first cross-species screen; format: in vivo
# Outline: as §1
# [4] = RNA from spinal cord of NHPs, NGS
# [5] = RNA from brain of BALB/c mice, NGS
# [6] = RNA from brain of C57Bl/6 mice, NGS
Sequence,"Fold enrichment over AAV9 in the brain of NHPs ([1]; RNA NGS, brain of NHPs) [fold]","Fold enrichment over AAV9 in the spinal cord of NHPs ([1]; RNA NGS, spinal cord of NHPs) [fold]","Fold enrichment over AAV9 in the brain of Mice (BALB/c) (brain [2]; RNA NGS, brain of BALB/c mice) [fold]","Fold enrichment over AAV9 in the brain of Mice (C57Bl/6) (brain [3]; RNA NGS, brain of C57Bl/6 mice) [fold]","Fold enrichment over AAV9 in the brain of NHPs ([1]; RNA from brain of NHPs, NGS) [fold]","Fold enrichment over AAV9 in the spinal cord of NHPs [1, 4] [fold]",Fold enrichment over AAV9 in the brain of Mice (BALB/c) (brain [2]; [5]) [fold],Fold enrichment over AAV9 in the brain of Mice (C57Bl/6) (brain [3]; [6]) [fold]
GSGQSSGRLINKQT,2.055,28.135,0.277,0.543,,,,
GSGQSSYGSGNQQT,,,,,1.257,1.686,0.456,1.161
GSGQSTLKRINQQT,,,,,1.168,13.442,1.184,0.534
GSGQSVQTVVNQQT,3.057,5.441,0.240,0.582,,,,
GSGQSYDMRGNQQT,,,,,1.248,0.567,0.368,0.588
GSGQSYQRDHNQQT,1.859,8.013,0.323,0.779,,,,
GSGQSYTMTQNQQT,2.136,6.755,0.231,0.297,,,,
GSGQTARNGINQQT,,,,,1.192,2.030,0.472,1.002
GSGQTHGGQHNQQT,2.125,12.251,1.098,1.448,,,,
GSGQTQVLKSNQQT,1.640,3.031,0.975,1.599,,,,
GSGQTRMPLANQQT,,,,,1.296,0.790,0.273,0.447
GSGQTRQMKDNQQT,1.530,11.079,0.214,0.841,,,,
GSGQTSGLKQNQQT,1.968,3.927,0.334,0.394,,,,
GSGQTVVRIANQQT,1.046,4.156,0.390,0.661,,,,
GSGQVAYAQGNQQT,,,,,1.259,1.309,0.313,0.734
GSGQVGRLLQNQQT,1.899,1.762,0.748,0.773,,,,
GSGQVHASQVNQKT,1.049,0.503,0.767,0.855,,,,
GSGQVHNPTQNQQT,,,,,1.410,2.488,0.542,1.021
GSGQVHQAEVNQQT,1.825,0.152,0.287,0.436,,,,
GSGQVVAHVGNQQT,1.901,0.833,0.321,0.800,,,,

Sequence,"Fold enrichment over AAV9 in the brain of NHPs ([1]; RNA NGS, brain of NHPs) [fold]","Fold enrichment over AAV9 in the spinal cord of NHPs ([1]; RNA NGS, spinal cord of NHPs) [fold]","Fold enrichment over AAV9 in the brain of Mice (BALB/c) (brain [2]; RNA NGS, brain of BALB/c mice) [fold]","Fold enrichment over AAV9 in the brain of Mice (C57Bl/6) (brain [3]; RNA NGS, brain of C57Bl/6 mice) [fold]","Fold enrichment over AAV9 in the brain of NHPs ([1]; RNA from brain of NHPs, NGS) [fold]","Fold enrichment over AAV9 in the spinal cord of NHPs [1, 4] [fold]",Fold enrichment over AAV9 in the brain of Mice (BALB/c) (brain [2]; [5]) [fold],Fold enrichment over AAV9 in the brain of Mice (C57Bl/6) (brain [3]; [6]) [fold]
GSGQVVGLSGNQQT,2.052,7.212,0.881,0.785,,,,
GSGQVYISTPNQQT,,,,,1.367,0.000,0.282,0.859
GSGQYANHGINQQT,1.820,5.717,0.701,0.906,,,,
GSGQYASSIPNQQT,2.346,3.321,0.489,1.022,,,,
GSGQYRSSSDNQQT,,,,,1.369,6.209,0.409,0.681
GSGQYVHVSSNQQT,,,,,1.137,1.803,0.366,0.739
GSGRHLASVQNQQT,,,,,1.187,1.024,0.606,0.654
GSGRLVPNGPNQQT,2.314,3.925,0.411,0.639,,,,
GSGRNPQTQPLQQT,1.519,0.040,0.573,0.733,,,,
GSGSDMSSWQNQQT,1.651,0.175,0.303,0.281,,,,
GSGSHHASRQNQQT,1.712,0.451,0.584,3.073,,,,
GSGSHRDVSQNQQT,2.843,4.022,0.550,0.626,,,,
GSGSKQNALQNQQT,,,,,1.216,2.010,0.594,0.941
GSGSLRDFDQNQQT,2.120,6.846,0.272,0.586,,,,
GSGSNMRLSQNQQT,,,,,1.363,0.588,0.730,0.962
GSGSPHARMQNQQT,56.138,22.690,4.164,7.795,,,,
GSGSPHPSRQNQQT,3.017,1.993,0.975,1.869,,,,
GSGSPHVKIQNQQT,16.854,9.068,2.227,2.173,,,,
GSGSPHVKSQNQQT,37.551,13.649,15.861,8.069,,,,
GSGSPHVRMQNQQT,11.574,6.764,10.076,9.121,,,,
